Data set [1] is described as follows: Solubility of the compound at pH 7. The class given is physicochemical. The following applies: buffer, read-out: solubility.
Data set [2] is described as follows: Lipophilicity, log D of the compound. The following applies: octanol/water; read-out: logD. The data set is classed as physicochemical.
Data set [3] addresses T1, Nuclear receptor subfamily 1 group I member 2 (Homo sapiens, UniProt O75469).
T1 sequence (O75469 whole entry): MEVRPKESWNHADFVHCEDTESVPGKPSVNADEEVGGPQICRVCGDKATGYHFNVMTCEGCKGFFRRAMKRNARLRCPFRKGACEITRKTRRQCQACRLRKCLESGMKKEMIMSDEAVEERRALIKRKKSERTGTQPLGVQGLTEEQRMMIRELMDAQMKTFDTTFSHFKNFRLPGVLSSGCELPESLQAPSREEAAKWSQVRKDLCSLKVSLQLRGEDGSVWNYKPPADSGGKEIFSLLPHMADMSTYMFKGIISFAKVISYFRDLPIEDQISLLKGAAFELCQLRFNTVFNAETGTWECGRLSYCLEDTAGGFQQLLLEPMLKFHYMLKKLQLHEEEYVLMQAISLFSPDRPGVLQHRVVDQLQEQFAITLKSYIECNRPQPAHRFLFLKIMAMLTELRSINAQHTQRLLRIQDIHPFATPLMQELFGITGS
Put plainly: Inhibition of PXR (unknown origin). The class given is ADME.

In a further data set the target is Cytochrome P450 2C9 (Homo sapiens, UniProt P11712). Put plainly: Inhibition of CYP2C9 (unknown origin). The class given is ADME.
Cytochrome P450 2C9, sequence (P11712 whole entry): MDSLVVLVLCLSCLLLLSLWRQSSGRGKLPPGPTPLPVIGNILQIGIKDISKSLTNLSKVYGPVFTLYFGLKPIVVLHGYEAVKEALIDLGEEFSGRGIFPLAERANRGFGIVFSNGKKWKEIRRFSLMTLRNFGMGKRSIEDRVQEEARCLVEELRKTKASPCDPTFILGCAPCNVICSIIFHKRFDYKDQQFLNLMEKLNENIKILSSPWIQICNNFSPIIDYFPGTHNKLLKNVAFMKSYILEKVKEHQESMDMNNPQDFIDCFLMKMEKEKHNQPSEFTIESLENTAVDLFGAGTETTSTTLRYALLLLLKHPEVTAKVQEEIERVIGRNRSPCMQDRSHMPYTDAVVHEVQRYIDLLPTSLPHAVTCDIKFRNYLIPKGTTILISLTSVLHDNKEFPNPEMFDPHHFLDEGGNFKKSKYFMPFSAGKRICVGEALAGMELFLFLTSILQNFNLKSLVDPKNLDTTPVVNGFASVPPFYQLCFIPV
The nature of data set [4]: Solubility of the compound at pH 2. The class given is physicochemical. The following applies: buffer, read-out: solubility.
Data set [5] concerns the target T2, Diacylglycerol O-acyltransferase 1 (Mus musculus, UniProt Q9Z2A7).
T2 sequence (Q9Z2A7 whole entry): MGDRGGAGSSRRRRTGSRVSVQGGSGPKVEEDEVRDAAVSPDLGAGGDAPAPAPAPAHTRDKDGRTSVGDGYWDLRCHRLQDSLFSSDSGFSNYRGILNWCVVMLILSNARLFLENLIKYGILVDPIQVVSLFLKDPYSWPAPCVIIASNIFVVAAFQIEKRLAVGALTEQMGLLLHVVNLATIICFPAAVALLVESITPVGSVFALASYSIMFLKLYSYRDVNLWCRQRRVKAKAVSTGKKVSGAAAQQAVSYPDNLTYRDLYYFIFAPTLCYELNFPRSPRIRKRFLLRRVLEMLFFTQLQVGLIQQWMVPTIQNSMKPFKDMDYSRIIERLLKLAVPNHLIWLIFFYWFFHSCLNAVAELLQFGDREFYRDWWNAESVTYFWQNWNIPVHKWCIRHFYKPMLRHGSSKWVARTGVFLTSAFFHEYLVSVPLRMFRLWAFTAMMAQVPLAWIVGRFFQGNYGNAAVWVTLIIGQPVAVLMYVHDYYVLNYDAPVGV
Put plainly: Inhibition of mouse DGAT1 assessed as inhibition of triglyceride formation.

A further data set has as its target Cytochrome P450 3A4 (Homo sapiens, UniProt P08684). The data set is described as follows: Inhibition of CYP3A4 (unknown origin). The class given is ADME.

The solubility is the concentration that dissolves in the medium under given conditions. What is called logD is lipophilicity at a set pH, counting ionised and neutral species. As usually defined, the IC50 is the concentration that gives 50% inhibition.

≈ marks a conversion by molar mass, not a printed value.

Cytochrome P450 3A4, sequence (P08684 whole entry): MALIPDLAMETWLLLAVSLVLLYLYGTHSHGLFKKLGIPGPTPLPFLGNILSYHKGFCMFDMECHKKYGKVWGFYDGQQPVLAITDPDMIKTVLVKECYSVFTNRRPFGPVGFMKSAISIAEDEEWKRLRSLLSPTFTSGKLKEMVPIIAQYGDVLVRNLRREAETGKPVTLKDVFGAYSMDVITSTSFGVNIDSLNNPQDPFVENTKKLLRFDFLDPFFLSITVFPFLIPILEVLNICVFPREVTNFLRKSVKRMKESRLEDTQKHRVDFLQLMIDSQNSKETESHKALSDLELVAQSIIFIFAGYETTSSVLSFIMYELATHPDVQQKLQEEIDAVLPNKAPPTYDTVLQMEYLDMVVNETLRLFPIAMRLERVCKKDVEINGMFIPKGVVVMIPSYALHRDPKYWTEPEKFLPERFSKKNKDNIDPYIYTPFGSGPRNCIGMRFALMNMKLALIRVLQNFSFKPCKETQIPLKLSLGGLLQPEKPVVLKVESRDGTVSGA

Take `O=C(O)CC1COC2(CCN(c3ccc(-c4nc5cc(C(F)(F)F)ccc5[nH]4)cn3)CC2)C1` (racemic): the solubility in data set [1] worked out at 182 µM (≈ 83.8 µg/mL); in data set [4], 170 µM (≈ 78.3 µg/mL). In addition, the logD in data set [2] is 1.51. Besides, the IC50 in data set [3] was more than 30 µM; on Cytochrome P450 2C9, more than 50 µM; in data set [5], 0.178 µM; against Cytochrome P450 3A4, more than 50 µM.

Values taken from ChEMBL document CHEMBL4049398, “Microscale High-Throughput Experimentation as an Enabling Technology in Drug Discovery: Application in the Discovery of (Piperidinyl)pyridinyl-1H-benzimidazole Diacylglycerol Acyltransferase 1 Inhibitors” (J Med Chem, 2017).
